4 molecules from DBAASP can be followed below.

Test in all cases: ≥ marks a high value that may be exact or a test limit, other limits are often not marked, values filed in µg/mL are converted to µM
For test [1], the system named is Pseudomonas aeruginosa PAO1.
The subject of test [2] is Streptococcus mutans ATCC 25175.
Test [3] concerns Candida albicans ATCC 10231.
In test [4] the test system is Pseudomonas aeruginosa ATCC 15442.
For test [5], the system named is Staphylococcus aureus ATCC 25923.
Test [6] deals with Staphylococcus aureus ATCC 43300.
Test [7] relates to Bacillus subtilis ATCC 6633.
The test system of a further test is Escherichia coli D31.
Test [8] has as its system Escherichia coli ATCC 25922.
Another test has as its system Staphylococcus aureus MR.
For test [9], the system named is Pseudomonas aeruginosa ATCC 27853.
The test system of test [10] is Acinetobacter baumannii KCTC 2508.
The test system of test [11] is Klebsiella pneumoniae KCTC 2208.

Converted amounts (≈) assume the structure as drawn.

Regarding `CC[C@H](C)[C@H](NC(=O)[C@H](CCCCN)NC(=O)[C@H](CCC(N)=O)NC(=O)[C@H](CC(C)C)NC(=O)[C@@H](N)Cc1ccccc1)C(=O)N[C@H](C(=O)NCC(=O)N[C@@H](C)C(=O)N[C@@H](CC(C)C)C(=O)NCC(=O)N[C@@H](CCCCN)C(=O)N[C@@H](CC(C)C)C(=O)N[C@@H](Cc1ccccc1)C(N)=O)[C@@H](C)CC` [FLQKIIGALGKLF], the MIC (commonly the smallest concentration in the dilution series that meets the test's criterion for growth inhibition) in test [1] worked out at 12.5 µM (≈ 18.1 µg/mL); in [2], 3.1 µM (≈ 4.49 µg/mL); in test [3], 25 µM (≈ 36.2 µg/mL); in test [4], 6.2 µM (≈ 8.97 µg/mL); in test [5], 1.6 µM (≈ 2.31 µg/mL); in test [6], 6.2 µM (≈ 8.97 µg/mL). The minimal inhibitory concentration (MIC) was 12.5 µM (≈ 18.1 µg/mL) in test [7], 12.5 µM (≈ 18.1 µg/mL) in the test with Escherichia coli D31, 6.2 µM (≈ 8.97 µg/mL) in test [8] and 6.2 µM (≈ 8.97 µg/mL) in the test on Staphylococcus aureus MR.
For `CC[C@H](C)[C@H](N)C(=O)N[C@@H](C)C(=O)N[C@@H](CCCN=C(N)N)C(=O)N[C@@H](CCCN=C(N)N)C(=O)N[C@@H](C)C(=O)N[C@@H](CC(C)C)C(=O)N[C@@H](CCCCN)C(=O)N[C@@H](CCCCN)C(=O)N[C@@H](C)C(=O)N[C@@H](CCCCN)C(=O)N[C@@H](CCCN=C(N)N)C(=O)N[C@@H](C)C(=O)N[C@@H](C)C(=O)N[C@@H](Cc1cnc[nH]1)C(=O)N[C@H](C(=O)N[C@H](C(=O)N1CCC[C@H]1C(=O)N[C@@H](CCC(N)=O)C(=O)N[C@@H](CS)C(=O)N[C@@H](CCCCN)C(=O)N[C@@H](CCCCN)C(=O)N[C@@H](Cc1ccccc1)C(=O)NCC(=O)N[C@@H](CCCN=C(N)N)C(=O)N[C@@H](CCCN=C(N)N)C(N)=O)[C@@H](C)CC)[C@@H](C)O` [IARRALKKAKRAAHTIPQCKKFGRR], the MIC in test [9] stood at 2 µM (≈ 5.81 µg/mL); in test [10], 4 µM (≈ 11.6 µg/mL); in [11] it was 4 µM (≈ 11.6 µg/mL).
For the molecule `CC[C@H](C)[C@H](N)C(=O)N[C@@H](C)C(=O)N[C@@H](CCCN=C(N)N)C(=O)N[C@@H](CCCN=C(N)N)C(=O)N[C@@H](C)C(=O)N[C@@H](CC(C)C)C(=O)N[C@@H](CCCCN)C(=O)N[C@@H](CCCCN)C(=O)N[C@@H](CO)C(=O)N[C@@H](CC(C)C)C(=O)N[C@@H](CCCN=C(N)N)C(=O)N[C@@H](C)C(=O)N[C@@H](CCCN=C(N)N)C(=O)N[C@@H](Cc1cnc[nH]1)C(=O)N[C@H](C(=O)N[C@H](C(=O)N1CCC[C@H]1C(=O)N[C@@H](CCC(N)=O)C(=O)N[C@@H](CS)C(=O)N[C@@H](CCCCN)C(=O)N[C@@H](CCCCN)C(=O)N[C@@H](Cc1ccccc1)C(=O)NCC(=O)N[C@@H](CCCN=C(N)N)C(=O)N[C@@H](CCCN=C(N)N)C(N)=O)[C@@H](C)CC)[C@@H](C)O` [IARRALKKSLRARHTIPQCKKFGRR], the MIC came to 8 µM (≈ 23.9 µg/mL) in [9], 4 µM (≈ 12 µg/mL) in test [10] and 4 µM (≈ 12 µg/mL) in test [11].
On to `CC[C@H](C)[C@H](N)C(=O)N[C@@H](C)C(=O)N[C@@H](CCCN=C(N)N)C(=O)N[C@@H](CCCN=C(N)N)C(=O)N[C@@H](CC(N)=O)C(=O)N[C@@H](CC(C)C)C(=O)N[C@@H](CS)C(=O)N[C@@H](C)C(=O)N[C@@H](CO)C(=O)N[C@@H](CC(C)C)C(=O)N[C@@H](CCCN=C(N)N)C(=O)N[C@@H](C)C(=O)N[C@@H](CCCN=C(N)N)C(=O)N[C@@H](Cc1cnc[nH]1)C(=O)N[C@H](C(=O)N[C@H](C(=O)N1CCC[C@H]1C(=O)N[C@@H](CCC(N)=O)C(=O)N[C@@H](CS)C(=O)N[C@@H](CCCCN)C(=O)N[C@@H](CCCCN)C(=O)N[C@@H](Cc1ccccc1)C(=O)NCC(=O)N[C@@H](CCCN=C(N)N)C(=O)N[C@@H](CCCN=C(N)N)C(N)=O)[C@@H](C)CC)[C@@H](C)O` [IARRNLCASLRARHTIPQCKKFGRR], for which the minimum inhibitory concentration (MIC) in test [9] turned out to be 8 µM (≈ 23.6 µg/mL); in test [10] it was 16 µM (≈ 47.2 µg/mL); in test [11], 8 µM (≈ 23.6 µg/mL).
